Values of other authors, collected in patent US6500409B1, “Synergistic antiplaque/antigingivitis oral composition” (Colgate Palmolive Company, priority 2000, dated 2002).

Assays:
[1] = tested on: S. mutans; details: in vitro
[2] = tested on: plaque adherence to teeth; details: in vitro

| Compound | Bactericidal activity in MIC test, in words [1] | Inhibition of plaque adherence to teeth, in words [2] |
| --- | --- | --- |
| C=CCc1ccc(O)c(-c2ccc(O)c(CC=C)c2)c1 [honokiol] | bactericidal | not found to be inhibitory |
| C=CCc1ccc(O)c(-c2cc(CC=C)ccc2O)c1 [magnolol] | bactericidal | not found to be inhibitory |
